# Test results taken from article PMC4821887, “Identification of chemicals that mimic transcriptional changes associated with autism, brain aging and neurodegeneration” (Nature Communications, 2016).
# pEC50: −log10 of the molar value. Entries after “also recorded” stand apart in the source; their conditions may differ. Where a name gives a salt, the structure may show the parent alone. Read-outs that look alike come from different tables or passages of the source.
# Key:
# [1] = tested on: mouse cortical neuron-enriched cultures; test: RNA-seq transcriptional screen with hierarchical clustering and cluster membership; assay type: cell-based; details: for Chemical cluster assigned by gene expression: 24 h at non-toxic concentration, hierarchical clustering of 5,121 variably expressed genes; for Transcriptional change relative to the cluster 2 signature: RNA-seq, Supplementary Fig. 9
# Protocol: Cultures were treated with the non-cytotoxic dose of each chemical, by exchanging half of the original medium with chemicals at 2 × concentration in prewarmed feeding medium, on DIV 7 for 24 h in 12-well plates at a density of 5 × 10^5 cells per well. RNA was isolated using RNeasy plus mini kit (Cat. #74134, Qiagen). RNA yield and quality were determined using a Nanodrop 1000 Spectrophotometer (Thermo Scientific). Samples were further assessed for quality using either an Agilent Bioanalyzer 2100 or TapeStation 2200 to obtain a RIN. RIN values exceeding 7 were used for sequencing. RNA samples were used to generate and barcode complementary DNA libraries using the TruSeq RNA Library Preparation Kit at the UNC High Throughput Sequencing Facility. Pools of 24 multiplexed samples were sequenced per lane on an Illumina HiSeq 2500 using 50-bp paired-end reads.
# RNA-seq reads were filtered using TagDust and aligned to the reference mouse genome (mm9) with TopHat using default parameters. Reads aligning to ribosomal RNA genes were removed. Transcript abundance was estimated by computing Reads per kilobase per million mapped reads (RPKM) using RefSeq gene models aggregated by gene symbol. For differential expression analyses, raw counts over RefSeq exons were used, and then were compared across samples using DESeq[62].
# RPKMs for all RefSeq genes and all samples were filtered such that a given gene had >90% of samples with RPKM >0 and gene length exceeded 500 bp. RPKMs were then log10-transformed, quantile-normalized, median-centred, and the effects due to culture or sequencing batch were removed using a mixed model analysis of variance. This batch correction step was performed on individual experiments rather than chemical–vehicle ratios to reduce the effects due to variations in culture composition as well as batch-to-batch variations at the level of sequencing. Genes were then median-centred again, and filtered such that their s.d. exceeded 0.1. Chemical replicates were then combined using the median. Classes of chemicals were then discovered in two ways. First, we performed hierarchical clustering using average linkage and Pearson correlation distance measures. The boundaries of the discovered classes from clustering were set by computing pairwise Spearman correlations for all samples. A given cluster had to have at least three members with the minimum pairwise Spearman correlation coefficient exceeding 0.2, though cluster members often exceeded a correlation of 0.6 (Supplementary Fig. 5c,d). Seven chemical clusters were discovered, however one was removed due to failing to have a positive silhouette width, a metric of cluster robustness. These definitions enabled the three positive control topoisomerase inhibitors to form a cohesive group of chemicals with known structural and functional similarity (cluster 5). None of the culture or sequencing batches contributed to the formation of any one of the final six clusters (Supplementary Fig. 4).
# [2] = tested on: mouse cortical neuron cultures
# [3] = tested on: mitochondrial superoxide in cortical neurons; test: Mitochondrial superoxide detection (MitoSOX Red live-cell imaging); assay type: cell-based, mouse; details: for O2− production at the sequencing concentration: seven-point concentration-response, Supplementary Fig. 8; for Mitochondrial superoxide (O2−) production: 2 h treatment, MitoSOX, vincristine 500 µM in Supplementary Fig. 10b
# cortical neurons [4] = tested on: cortical neurons; parameters: method as in PMID 20881019; details: cited from earlier work
# purified tubulin = test: Tubulin polymerization assay (cell-free, BK011P); assay type: biochemical; details: 37 °C, fluorescence over 60 min, equimolar doses
# cortical neurons [5] = test: Soma morphology (proportion of cells with altered soma morphology) in live-cell imaging; assay type: cell-based, mouse; details: for Soma swelling / aberrant cell morphology: 2 h treatment, vincristine 500 µM in Supplementary Fig. 10c
# [6] = pretreatment 10 μM, 2 h, fenamidone 10 μM
structure (smiles),measurement,setting,value
C[C@@]1(c2ccc(Oc3ccccc3)cc2)OC(=O)N(Nc2ccccc2)C1=O (racemic) [famoxadone],Chemical cluster assigned by gene expression,[1],cluster 2
same,% Dead cells (vehicle subtracted),[2],1.213%
"CO/N=C(/C1=NOCCO1)c1ccccc1Oc1ncnc(Oc2ccccc2Cl)c1F [Fluoxastrobin, fluoxastrobin]",O2− production at the sequencing concentration,[3],did not generate
same,Chemical cluster assigned by gene expression,[1],not assigned to cluster 2
CO/C=C(/C(=O)OC)c1ccccc1Oc1cc(Oc2ccccc2C#N)ncn1 [azoxystrobin],O2− production at the sequencing concentration,[3],did not generate
same,Chemical cluster assigned by gene expression,[1],not assigned to cluster 2
CC1(C)C(C=C(Cl)Cl)C1C(=O)OC(C#N)c1ccc(F)c(Oc2ccccc2)c1 (stereo not shown) [cyfluthrin],Calcium influx in cortical neurons,cortical neurons [4],stimulate sustained calcium influx
same,Chemical cluster assigned by gene expression,[1],cluster 1
CC1(C)C(C(=O)OC(C#N)c2cccc(Oc3ccccc3)c2)C1(C)C (stereo not shown) [fenpropathrin],Calcium influx in cortical neurons,cortical neurons [4],stimulate sustained calcium influx
same,Chemical cluster assigned by gene expression,[1],cluster 1
Cc1nn(C)c(Oc2ccccc2)c1C=NOCc1ccc(C(=O)OC(C)(C)C)cc1 [fenpyroximate],pEC50,"[3]; Mus musculus, Cortical neurone, read-out: Superoxide production, concentration for half-maximum response (EC50)",8.15
same,Chemical cluster assigned by gene expression,[1],cluster 2
CO/N=C(/C(=O)OC)c1ccccc1COc1ccccc1C [kresoxim-methyl],Transcriptional change relative to the cluster 2 signature,[1],altered transcription in a manner consistent with chemicals in cluster 2
"CO/C(=C/C(N)=O)[C@H](C)[C@H](/C=C/c1csc(-c2csc([C@@H](C)/C=C/C=C/C(C)C)n2)n1)OC [myxothiazol, reference compound]",Transcriptional change relative to the cluster 2 signature,[1],altered transcription in a manner consistent with chemicals in cluster 2
"CC(=O)O[C@H]1C(=O)[C@@]2(C)[C@H]([C@H](OC(=O)c3ccccc3)[C@]3(O)C[C@H](OC(=O)[C@H](O)[C@@H](NC(=O)c4ccccc4)c4ccccc4)C(C)=C1C3(C)C)[C@]1(OC(C)=O)CO[C@@H]1C[C@@H]2O [paclitaxel, Paclitaxel]",Effect on tubulin polymerization,purified tubulin,promoted
same,Effect of pretreatment on fenamidone-induced soma swelling / aberrant morphology,cortical neurons [5]; [6],attenuated
same,Effect of pretreatment on fenamidone-induced O2− production,[3]; [6],attenuated
CC(C)(C)c1ccc(CSc2cnn(C(C)(C)C)c(=O)c2Cl)cc1 [pyridaben],Chemical cluster assigned by gene expression,[1],cluster 2
CON=C(C(=O)OC)c1ccccc1CON=C(C)c1cccc(C(F)(F)F)c1 [trifloxystrobin],Chemical cluster assigned by gene expression,[1],cluster 2
same,% Dead cells (vehicle subtracted),"[2]; mouse, 24 h, 10 µM",7.404%
"CC[C@]1(O)C[C@H]2CN(CCc3c([nH]c4ccccc34)[C@@](C(=O)OC)(c3cc4c(cc3OC)N(C=O)[C@H]3[C@@](O)(C(=O)OC)[C@H](OC(C)=O)[C@]5(CC)C=CCN6CC[C@]43[C@@H]65)C2)C1 [vincristine, vincristine sulfate salt]",Effect on tubulin polymerization,purified tubulin,inhibited
same,Soma swelling / aberrant cell morphology,cortical neurons [5],phenocopied
same,Soma swelling / aberrant cell morphology,cortical neurons [5]; listed as Vincristine,altered cell morphology; also recorded: dose-dependent
same,Mitochondrial superoxide (O2−) production,[3],phenocopied
same,Mitochondrial superoxide (O2−) production,[3]; listed as Vincristine,induced; also recorded: dose-dependent
